The record followed here is ChEMBL document CHEMBL5579856, “Stereospecific Synthesis and Biological Evaluation of KRN7000 Analogues with Thio-modifications at the Acyl Moiety” (2024).

Common to all, as to format: functional
What all share (settings): dose 200 µg/kg

Assay [1] relates to Mus musculus. Briefly: Induction of IFN-gamma secretion in male C57BL/6 mouse assessed as […] in serum at 200 ug/kg, iv measured after 16 hrs by ELISA (reference value: BLD).
Assay [2] has as its system Mus musculus. Description: Induction of IL-4 secretion in male C57BL/6 mouse assessed as IL-4 level in serum at 200 ug/kg, iv measured after 4 hrs by ELISA (reference value: BLD).
The test system of assay [3] is Mus musculus. Description: Induction of cytokine secretion in male C57BL/6 mouse assessed as ratio of IFN-gamma to IL-4 level in serum at 200 ug/kg, iv by ELISA.

Regarding `CCCCCCCCCCCCCC[C@@H](O)[C@@H](O)[C@H](CO[C@H]1O[C@H](CO)[C@H](O)[C@H](O)[C@H]1O)NC(=S)CCCCCCCCCCc1ccc(F)cc1`, the Activity in assay [1] amounted to 1610.18 pg/mL; in assay [2] it was 276.98 pg/mL. In addition, in assay [3], the Ratio came out at 2.03.

Regarding `CCCCCCCCCCCCCC[C@@H](O)[C@@H](O)[C@H](CO[C@H]1O[C@H](CO)[C@H](O)[C@H](O)[C@H]1O)NC(=S)CCCCCCCCCCc1ccc(Sc2ccc(F)cc2)cc1`, the Activity came out at 1046.54 pg/mL in assay [1] and 396.07 pg/mL in assay [2]. The Ratio in assay [3] came out at 0.99.

With `CCCCCCCCCCCCCC[C@@H](O)[C@@H](O)[C@H](CO[C@H]1O[C@H](CO)[C@H](O)[C@H](O)[C@H]1O)NC(=O)CCCCCCCCCCc1ccc(F)cc1`, the Activity came to 2470.48 pg/mL in assay [1] and 425.65 pg/mL in assay [2]. Besides, the Ratio in assay [3] is given as 2.03.

In the case of `CCCCCCCCCCCCCCCCCCCCCCCCCC(=O)N[C@@H](CO[C@H]1O[C@H](CO)[C@H](O)[C@H](O)[C@H]1O)[C@H](O)[C@H](O)CCCCCCCCCCCCCC` [RGI-7000], the Activity in assay [1] was determined as 3083.43 pg/mL; in assay [2], 1077.7 pg/mL.

For `CCCCCCCCCCCCCCCCCCCCCCCCCC(=S)N[C@@H](CO[C@H]1O[C@H](CO)[C@H](O)[C@H](O)[C@H]1O)[C@H](O)[C@H](O)CCCCCCCCCCCCCC`, the Activity stood at 3291.25 pg/mL in assay [1] and 951.79 pg/mL in assay [2]. For the same molecule, the Ratio in assay [3] was found to be 1.21.

Take `CCCCCCCCCCCCCC[C@@H](O)[C@@H](O)[C@H](CO[C@H]1O[C@H](CO)[C@H](O)[C@H](O)[C@H]1O)NC(=O)CCCCCCCCCCc1ccc(Sc2ccc(F)cc2)cc1`: the Activity in assay [1] came to 2100.52 pg/mL; in assay [2], 324.56 pg/mL. Moreover, the Ratio in assay [3] stood at 2.26.

Turning to `CCCCCCCCCCCCCC[C@@H](O)[C@@H](O)[C@H](CO[C@H]1O[C@H](CO)[C@H](O)[C@H](O)[C@H]1O)NC(=S)CCCCCCCCCCc1ccc(Oc2ccc(F)cc2)cc1`, the Activity in assay [1] turned out to be 571.16 pg/mL; in assay [2], 125.69 pg/mL. Moreover, the Ratio in assay [3] came out at 1.59.

As to `CCCCCCCCCCCCCC[C@@H](O)[C@@H](O)[C@H](CO[C@H]1O[C@H](CO)[C@H](O)[C@H](O)[C@H]1O)NC(=O)CCCCCCCCCCc1ccc(Oc2ccc(F)cc2)cc1`, the Activity in assay [1] amounted to 655.43 pg/mL; in assay [2], 205.34 pg/mL. The Ratio in assay [3] came out at 1.12.
